Measurements taken from ChEMBL document CHEMBL3046586, “Lethal and sublethal effects of buprofezin and imidacloprid on Bemisia tabaci (Hemiptera: Aleyrodidae)” (2011).
In brackets after ≈: the same amount, converted by molar mass. Activity calls are given as the source filed them. The calls are words filed in the database; no cut-off is given here.

Experiments:
Bemisia tabaci [1] = test: Insecticidal activity against adult female Bemisia tabaci (sweet potato whitefly) in compound treated cucumber leaves assessed as mortality at 2000 ppm at 25 +/- 1 degC, 70 +/- 5% RH after 48 hr (reference value: 9.3%); assay type: functional
Bemisia tabaci [2] = test: Insecticidal activity against adult female Bemisia tabaci (sweet potato whitefly) in compound treated cucumber leaves assessed as offspring sex ratio at LC25 concentration at 25 +/- 1 degC, 70 +/- 5% RH after 48 hr (Rvb Female/Female + male)= 0.60 no unit); assay type: functional
Bemisia tabaci [3] = test: Insecticidal activity against Bemisia tabaci (sweet potato whitefly) at egg stage in compound treated cucumber leaves assessed as egg hatch at 2000 ppm at 25 +/- 1 degC, 70 +/- 5% RH after 10 days (reference value: 91%); assay type: functional
Bemisia tabaci [4] = test: Insecticidal activity against Bemisia tabaci (sweet potato whitefly) at egg stage in compound treated cucumber leaves assessed as egg hatch at 10000 ppm at 25 +/- 1 degC, 70 +/- 5% RH after 10 days (reference value: 91%); assay type: functional
Bemisia tabaci [5] = test: Insecticidal activity against male Bemisia tabaci (sweet potato whitefly) in compound treated cucumber leaves assessed as mortality at 8000 ppm at 25 +/- 1 degC, 70 +/- 5% RH after 48 hr (reference value: 6.3%); assay type: functional
Bemisia tabaci [6] = test: Insecticidal activity against Bemisia tabaci (sweet potato whitefly) at second instar larvae stage in compound treated cucumber leaves assessed as mortality measured as dry larvae and detached from leaf at 25 +/- 1 degC, 70 +/- 5% RH after 7 days; assay type: functional; details: 168 h
Bemisia tabaci [7] = test: Insecticidal activity against Bemisia tabaci (sweet potato whitefly) at pupae stage in compound treated cucumber leaves assessed as mortality measured as dry larvae and detached from leaf at 25 +/- 1 degC, 70 +/- 5% RH after 7 days; assay type: functional; details: 168 h
Bemisia tabaci [8] = test: Insecticidal activity against Bemisia tabaci (sweet potato whitefly) at third instar larvae stage in compound treated cucumber leaves assessed as mortality measured as dry larvae and detached from leaf at 25 +/- 1 degC, 70 +/- 5% RH after 7 days; assay type: functional; details: 168 h
Bemisia tabaci [9] = test: Insecticidal activity against adult female Bemisia tabaci (sweet potato whitefly) in compound treated cucumber leaves assessed as egg hatch at LC25 concentration at 25 +/- 1 degC, 70 +/- 5% RH after 48 hr (reference value: […]); assay type: functional
Bemisia tabaci [10] = test: Insecticidal activity against male Bemisia tabaci (sweet potato whitefly) in compound treated cucumber leaves assessed as mortality at 10000 ppm at 25 +/- 1 degC, 70 +/- 5% RH after 48 hr (reference value: 6.3%); assay type: functional
Bemisia tabaci [11] = test: Insecticidal activity against adult female Bemisia tabaci (sweet potato whitefly) in compound treated cucumber leaves assessed as laid eggs at LC25 concentration at 25 +/- 1 degC, 70 +/- 5% RH after 48 hr; assay type: functional, organism-based
Bemisia tabaci [12] = test: Insecticidal activity against Bemisia tabaci (sweet potato whitefly) at egg stage in compound treated cucumber leaves assessed as egg hatch at 8000 ppm at 25 +/- 1 degC, 70 +/- 5% RH after 10 days (reference value: 91%); assay type: functional
Bemisia tabaci [13] = test: Insecticidal activity against Bemisia tabaci (sweet potato whitefly) at first instar larvae stage in compound treated cucumber leaves assessed as mortality measured as dry larvae and detached from leaf at 25 +/- 1 degC, 70 +/- 5% RH after 7 days; assay type: functional; details: 168 h
Bemisia tabaci [14] = test: Insecticidal activity against male Bemisia tabaci (sweet potato whitefly) in compound treated cucumber leaves assessed as mortality at 2000 ppm at 25 +/- 1 degC, 70 +/- 5% RH after 48 hr (reference value: 6.3%); assay type: functional
Bemisia tabaci [15] = test: Insecticidal activity against adult female Bemisia tabaci (sweet potato whitefly) in compound treated cucumber leaves assessed as mortality at 10000 ppm at 25 +/- 1 degC, 70 +/- 5% RH after 48 hr (reference value: 9.3%); assay type: functional
Bemisia tabaci [16] = test: Insecticidal activity against adult female Bemisia tabaci (sweet potato whitefly) in compound treated cucumber leaves assessed as longevity at LC25 concentration at 25 +/- 1 degC, 70 +/- 5% RH after 48 hr (reference value: 8.31 days); assay type: functional
Bemisia tabaci [17] = test: Insecticidal activity against adult female Bemisia tabaci (sweet potato whitefly) in compound treated cucumber leaves assessed as mortality at 8000 ppm at 25 +/- 1 degC, 70 +/- 5% RH after 48 hr (reference value: 9.3%); assay type: functional
Bemisia tabaci [18] = test: Insecticidal activity against adult female Bemisia tabaci (sweet potato whitefly) in compound treated cucumber leaves assessed as mortality after 48 hr; assay type: functional
Bemisia tabaci [19] = test: Insecticidal activity against male Bemisia tabaci (sweet potato whitefly) in compound treated cucumber leaves assessed as mortality after 48 hr; assay type: functional
Bemisia tabaci [20] = test: Insecticidal activity against Bemisia tabaci (sweet potato whitefly) at egg stage in compound treated cucumber leaves assessed as mortality measured as failure to hatch at 25 +/- 1 degC, 70 +/- 5% RH after 10 days; assay type: functional; details: 240 h

SMILES	Ratio (Bemisia tabaci [2])	LC50 (Bemisia tabaci [6]) [mg/L]	LC50 (Bemisia tabaci [7]) [mg/L]	LC50 (Bemisia tabaci [8]) [mg/L]	Activity (Bemisia tabaci [9]) [%]	Activity (Bemisia tabaci [11])	LC50 (Bemisia tabaci [13]) [mg/L]	Time (Bemisia tabaci [16]) [days]	also measured
CC(C)N1C(=O)N(c2ccccc2)CS/C1=N\C(C)(C)C [BUPROFEZIN]	0.5	10.9 (≈ 35.8 µM)	979 (≈ 3210 µM)	44.7 (≈ 146 µM)	66	Active	0.99 (≈ 3.24 µM)	4.85	mortality at 2000 ppm (Bemisia tabaci [1]): 8%; Activity (Bemisia tabaci [3]): 88%; Activity (Bemisia tabaci [4]): 72%; mortality at 8000 ppm (Bemisia tabaci [5]): 10%; mortality at 10000 ppm (Bemisia tabaci [10]): 19%; Activity (Bemisia tabaci [12]): 68%; mortality at 2000 ppm (Bemisia tabaci [14]): 11.3%; mortality at 10000 ppm (Bemisia tabaci [15]): 9.3%; mortality at 8000 ppm (Bemisia tabaci [17]): 8%
O=[N+]([O-])/N=C1\NCCN1Cc1ccc(Cl)nc1 [IMIDACLOPRID]	0.56	85.4 (≈ 334 µM)	2850 (≈ 11200 µM)	335 (≈ 1310 µM)	87.42	inactive	19.3 (≈ 75.5 µM)	11.7	LC25 (Bemisia tabaci [18]): 4.64 ppm; LC50 (Bemisia tabaci [18]; Bemisia tabaci, 48 h): 71.6 mg/L (≈ 280 µM); LC50 (Bemisia tabaci [19]): 11.8 mg/L (≈ 46.2 µM); LC50 (Bemisia tabaci [20]): 151 mg/L (≈ 591 µM)
